Data taken from patent US20250205362A1, “LIPID NANOPARTICLES” (NATIONAL UNIVERSITY CORPORATION HOKKAIDO UNIVERSITY, priority 2022, published 2025).

Columns and labels:
BALB/c mice = test: Measurement of Fluc activity in tissues after iv Fluc mRNA-loaded lipid nanoparticles; assay type: in vivo, mouse; conditions: Example 1, FIG. 1; Fluc mRNA-loaded LNP 50/10/40/1.5; Balb/c mice iv 0.01 mg mRNA/kg, 6 hours
Protocol: First, lipid nanoparticles encapsulating Fluc mRNA (Fluc mRNA-loaded lipid nanoparticles) were intravenously injected into BALB/c mice (female, 4 weeks old) at a dose of 0.01 mg mRNA/kg body weight. Six hours after intravenous injection, the mice were euthanized, and each tissue was collected, frozen in liquid nitrogen, and stored at −80° C. The tissues were homogenized in passive lysis buffer (Promega) using a bead cell disrupter (Micro Smash MS-100R, TOMY Seiko). Tissue debris was removed by centrifugation and the supernatant was collected. Fluc activity in the supernatant was measured using a luciferase assay system (E1500, Promega) according to the manufacturer's protocol. Luminescence was measured using a luminometer (Luminescencer-PSN, ATTO). The protein concentration was determined using a commercially available measurement kit (BCA Protein Assay Kit, Pierce). Fluc activity was expressed as relative light units (RLU) per mg of protein.

[1] = pKa of lipid nanoparticles (TNS); conditions: apparent pKa of Fluc mRNA-loaded LNP; 50/10/40/1.5 mol%; Table 5
Protocol: The pKa of the lipid nanoparticles was measured using p-Toluenesulfonic acid (TNS). First, TNS (final concentration: 0.75 μM) and lipid nanoparticles (final concentration: 30 μM) were mixed in buffer solutions (200 mL) adjusted to various pH values (pH 3.5 to 9.5). The buffer solutions used were: 20 mM citrate buffer solution, 20 mM sodium phosphate buffer solution, or 20 mM Tris-HCl buffer solution containing 130 mM NaCl. The fluorescence intensity of the prepared mixture was measured using a spectrofluorometer (VarioskanLux, Thermo Fisher Scientific) at the setting of λex=321 nm and λem=447 nm. The highest and lowest measured values were taken as 100% and 0% charge rate, respectively, and the pH showing a 50% charge rate was calculated as the apparent pKa. The percentage of the contained cationically charged pH-sensitive cationic lipid was calculated using the Henderson-Hasselbalch equation.

[2] = Encapsulation rate of lipid nanoparticles (Ribogreen); assay type: physicochemical
Protocol: The encapsulation rate of the lipid nanoparticles was calculated by measuring the amount of encapsulated nucleic acid (the amount of ssODN in the case of RNP-ssODN) using an RNA intercalator Ribogreen (manufactured by Life Technologies).

TTR gene = test: Measurement of TTR-KO activity (serum TTR protein, ELISA); assay type: in vivo, mouse; conditions: FIG. 5; TTR-RNP-ssODN-loaded LNP; mouse serum 7 days after administration
Procedure, shortened: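 Female BALB/c mice (4 weeks) received Cas9/sgTTR-RNP-loaded lipid nanoparticles i.v. at the indicated doses. Serum TTR protein measured by ELISA one week later. TTR-KO activity expressed as serum TTR (%) relative to untreated mice set at 100%.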

[3] = Average particle diameter, PdI and zeta potential of lipid nanoparticles (dynamic light scattering); assay type: physicochemical
Protocol: The mean particle diameter (number average value), ζ-mean particle diameter, and polydispersity index (PdI) of the lipid nanoparticles in PBS(−) (pH 7.4), as well as the zeta potential in 10 mM HEPES buffer (pH 7.4), were measured using an analyzing device, Zetasizer Nano ZS ZEN3600 (Malvern), which utilizes dynamic light scattering.

[4] = Fluc mRNA-loaded LNP, cationic lipid/DSPC/cholesterol/PEG-DMG 50/10/40/1.5 mol%, Table 5
[5] = TTR-RNP-ssODN-loaded LNP (ssODN-TTR_3-40%), cationic lipid/DSPC/cholesterol/PEG-DMG 50/10/40/3.5 mol%, Table 8

With CCCCCC(CCCCC)CC(=O)OCCCCCCC(O)(CCCCCCOC(=O)CC(CCCCC)CCCCC)CCCCN(CCC)CCC [CL4F8-b-5, 7-(4-(dipropylamino)butyl)-7-hydroxytridecane-1,13-diylbis(3-pentyloctanoate)] the “Fluc activity (gene transfer ability) in liver and spleen” value (BALB/c mice) was “equal to or greater than that of CL4F6”, the pKa [1] was 6.25 and the Encapsulation rate [2, 4] was 91.0%. For the same compound, the Encapsulation rate [2, 5] was 60.2%, the “serum TTR activity / gene knockout versus CL4F6” value (TTR gene) was “lower serum TTR activity and higher gene knockout” and the Number-average particle diameter [3, 4] was 68.7 nm. The PdI [3, 4] was 0.185, the ζ-average [3, 4] was 106.3 nm and the ζ-potential [3, 4] was −5.16 mV. The Number-average particle diameter [3, 5] was 127.5 nm, the PdI [3, 5] was 0.128 and the ζ-average [3, 5] was 178.0 nm. It also gave a ζ-potential [3, 5] of −0.95 mV.
